Patent US12729182B2, “Crystalline forms of N,N-dimethyltryptamine and methods of using the same” (priority 2022, dated 2026)
Entries after “also recorded” stand apart in the source; their conditions may differ.

Legend:
Type in all cases: physicochemical
[1] = Slurry competition (interconversion) studies between Forms I and IV in heptane; conditions: mixture of Form I and Form IV, pre-saturated heptane, 7 d
Description: Interconversion slurries were conducted in heptane at RT, −20° C., and 40° C. as in Table 12. In these slurries, the heptane was pre-saturated with N,N-DMT using Form IV solids at the stated temperature, and a portion of the liquid phase was filtered into a mixture of Form I and Form IV solids.

[2] = Aqueous solubility by solvent addition, visual assessment; conditions: water, calculated from total solvent used
[3] = Stable form screen slurries, form by XRPD; conditions: for Relative thermodynamic stability of the polymorph (conclusion from slurries): slurries at RT, 40° C., about 2 weeks
Description: Slurrying: Suspensions were prepared by adding enough solids to a given solvent at the stated conditions so that undissolved solids were present. The mixture was then agitated (typically by stirring or oscillation) in a sealed vial at a given temperature for an extended period of time.
Slurry experiments were conducted to determine the relative stability of Forms I, III, and IV. The screening conditions are tabulated at Tables 9-11.
In these experiments, saturated solutions containing excess undissolved solids were stirred for extended durations. […] Slurries were conducted RT, 40° C., 5° C., and −20° C. for approximately 2 weeks.

[4] = Hygroscopicity by dynamic vapor sorption (DVS)
[5] = Thermogravimetric analysis (TGA), decomposition; conditions: 25 to 350° C. at 10° C./min under nitrogen
Description: TGA or TGA/DSC analyses were performed using a Mettler-Toledo TGA/DSC3+ analyzer. Temperature and enthalpy adjustments were performed using indium, tin, zinc, and phenyl salicylate, and then verified with indium. The balance was verified with calcium oxalate. The sample was placed in an aluminum pan. The pan was hermetically sealed, the lid pierced, and the pan was then inserted into the TG furnace. A weighed aluminum pan configured as the sample pan was placed on the reference platform. The furnace was heated under nitrogen. Samples were analyzed from 25° C. to 350° C. at 10° C./min. Thermogravimetric analyses typically experience a period of equilibration at the start of each analysis, indicated by parentheses on the thermograms in the Figures section (V). The starting temperature for relevant weight loss calculations is selected at a point beyond this region (typically above 35° C.) for accuracy.

[6] = Solid state heating experiments, form conversion
[7] = Cycling DSC of amorphous N,N-DMT prepared in situ (glass transition)
Description: A cycling DSC experiment was performed to investigate a potential glass transition temperature by preparing amorphous solids in situ, starting with Form IV.
At the start of the experiment, Form IV solids were heated past the melt (to 80° C.) and held for 10 minutes. The melted material was quickly cooled to −80° C., then reheated to 200° C. A glass transition (Tg) is observed as a step in the green curve at −18° ° C. Amorphous materials tend to spontaneously crystallize at temperatures above the Tg.

CN(C)CCc1c[nH]c2ccccc12 [Form I and Form IV, N,N-dimethyltryptamine]
XRPD Result after competition slurry ([1]; 40° C.): Form IV
XRPD Result after competition slurry ([1]; RT): Form IV
XRPD Result after competition slurry ([1]; −20° C.): Form IV

CN(C)CCc1c[nH]c2ccccc12 [Form I, N,N-dimethyltryptamine]
solubility ([2]; thermodynamic from solid): < 1000 µg/mL
XRPD Result after slurry ([3]; start Form I, EtOAc/cyclohexane (5:95), attempted slurry, RT, 13 d): Form I
XRPD Result after slurry ([3]; start Form I, IPA/water (10:90), 5° C., 13 d): Form I
XRPD Result after slurry ([3]; start Form I, THF/water (5:95), attempted slurry, RT, 13 d): Form IV
XRPD Result after slurry ([3]; start Form I, acetone/water (10:90), 5° C., 13 d): Form IV
XRPD Result after slurry ([3]; start Form I, cyclohexane, RT, 13 d): Form I
XRPD Result after slurry ([3]; start Form I, heptane, RT, 13 d): Form I
XRPD Result after slurry ([3]; start Form I, heptane, −20° C., 17 d): Form I
Hygroscopicity [DVS], water uptake ([4]; at 60% RH): 0.04 wt % water at
Hygroscopicity [DVS], water uptake ([4]; at 90% RH): 60% RH and 0.18%
Form after DVS cycle and drying ([4]; post-DVS solids dried at 60° C.): form change; also recorded: recrystallized upon cooling to ambient temperature to lower-melting Form III

CN(C)CCc1c[nH]c2ccccc12 [Form III, N,N-dimethyltryptamine]
Decomposition (steep drop in TGA thermogram) begins above [5]: > 240 °C
Relative thermodynamic stability of the polymorph (conclusion from slurries) ([3]; 5° C., −20° C.): metastable across all temperatures; also recorded: metastable at all conditions tested
XRPD Result after slurry ([3]; start Form III, EtOAc/heptane (5:95), −20° C., 15 d): Form I
XRPD Result after slurry ([3]; start Form III, IPAc/heptane (3:97), RT, 13 d): Form IV
XRPD Result after slurry ([3]; start Form III, MeOH/water (20:80), 5° C., 15 d, sample oily before analysis): amorphous
XRPD Result after slurry ([3]; start Form III, heptane, RT, 15 d): Form I
Form conversion on solid state heating ([6]; held between 35° C. and 40° C.): concurrently melt and recrystallize to Form IV

CN(C)CCc1c[nH]c2ccccc12 [Form IV, N,N-dimethyltryptamine]
Aqueous solubility [2]: (<1) mg/mL
Decomposition (steep drop in TGA thermogram) begins above [5]: > 240 °C
Relative thermodynamic stability of the polymorph (conclusion from slurries) ([3]; 5° C., −20° C.): most thermodynamically stable polymorph; also recorded: remained unchanged upon slurrying in various solvent systems; also recorded: most thermodynamically stable form
XRPD Result after slurry ([3]; start Form IV, EtOAc/heptane (5:95), −20° C., 13 d): Form IV
XRPD Result after slurry ([3]; start Form IV, MeOH/water (20:80), 5° C., 13 d): Form IV
XRPD Result after slurry ([3]; start Form IV, acetone/water (10:90), RT, 13 d): Form IV
XRPD Result after slurry ([3]; start Form IV, heptane, RT, 13 d): Form IV
Form change on solid state heating ([6]; heating at 50° C. for 10 minutes): no changes

CN(C)CCc1c[nH]c2ccccc12 [amorphous N,N-DMT, N,N-dimethyltryptamine]
Glass transition (Tg) ([7]; Form IV melted at 80° C., 10 min, cooled to −80° C., reheated to 200° C.): −18 °C
Physical stability of amorphous material ([7]; heating/melting experiments, −20° C. to 40° C., above Tg): readily crystallize; also recorded: poor physical stability
